From patent publication US12195427B2, “MASP-2 inhibitors and methods of use” (priority 2018, dated 2025)
Structures can show the parent of a compound that is named as a salt.

Biological target: MASP-2 CCP2-SP (Homo sapiens (Human), UniProt O00187)
Assay: MASP-2 co-crystallization, X-ray crystallography and structure analysis (H-bonds, van der Waals contacts);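 on Ligand-pharmacophore element distance, pharmacophore element C2: distance from averaged pharmacophore element to bound ligand; missing value means element absent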;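 on Ligand-pharmacophore element distance, pharmacophore element C3: distance from averaged pharmacophore element to bound ligand; missing value means element absent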;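 on Ligand-pharmacophore element distance, pharmacophore element C4: distance from averaged pharmacophore element to bound ligand; missing value means element absent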;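 on Ligand-pharmacophore element distance, pharmacophore element C5: distance from averaged pharmacophore element to bound ligand; missing value means element absent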
Parameters: van der Waals contact distance, MASP-2 HIS 483 atom CD2 / van der Waals contact distance, MASP-2 HIS 483 atom NE2 / van der Waals contact distance, SER 654 C to compound atom / van der Waals contact distance, SER 654 O to compound atom / van der Waals contact distance, TRP 655 C to compound atom / van der Waals contact distance, MASP-2 GLY 528 atom CA / van der Waals contact distance TRP 655 atom CZ3 / van der Waals contact distance TRP 655 atom N / van der Waals contact distance TRP 655 atom CE3 / van der Waals contact distance GLY 656 atom C / van der Waals contact distance GLY 656 atom CA / van der Waals contact distance GLY 656 atom O / van der Waals contact distance, MASP-2 TYR 607 atom CD1 / van der Waals contact distance, MASP-2 PRO 606 atom O / d(C3,CA1) / d(CA1,N1)2 / d(H4,O1) / d(H4,O2) / d(O1,O2) / d(CA1,O2) / d(CA6,O1) / d(CA6,O2) / d(CA1,C5) / d(O2,H3) / d(N2,C2) / d(CA5,N2) / d(N2,C4) / d(N2,C6) / d(N2,CA3) / d(N2,O3) / d(O4,H2): unit not given beside the values
Settings: for H-bond distance to MASP-2 GLY 656 atom N: GLY 656 N; for H-bond distance to MASP-2 GLY 656 atom O: GLY 656 O; for H-bond distance to MASP-2 SER 628 atom O: SER 628 O; for H-bond distance to MASP-2 SER 654 atom O: SER 654 O; for H-bond distance to MASP-2 SER 657 atom O: SER 657 O; for van der Waals contact distance, VAL 653 CG1 to compound atom / van der Waals contact distance, SER 654 C to compound atom: Table A2-11; for Ligand-pharmacophore element distance, pharmacophore element C2 / Ligand-pharmacophore element distance, pharmacophore element C3 / Ligand-pharmacophore element distance, pharmacophore element C4 / Ligand-pharmacophore element distance, pharmacophore element C5 / Ligand-pharmacophore element distance, pharmacophore element C6 / Ligand-pharmacophore element distance, pharmacophore element C7 / Ligand-pharmacophore element distance, pharmacophore element CA1 / Ligand-pharmacophore element distance, pharmacophore element CA2 / Ligand-pharmacophore element distance, pharmacophore element CA3 / Ligand-pharmacophore element distance, pharmacophore element CA4 / Ligand-pharmacophore element distance, pharmacophore element CA5 / Ligand-pharmacophore element distance, pharmacophore element CA6: Table A4-1; for van der Waals contact distance GLY 656 atom C: MASP-2 GLY 656 C; for van der Waals contact distance TRP 655 atom CE3: MASP-2 TRP 655 CE3, compound atom in line below; for van der Waals contact distance TRP 655 atom N: MASP-2 TRP 655 N
Method in brief: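 Inhibitor complexes were obtained by soaking crystals of E. coli-derived human MASP-2 CCP2-SP. Synchrotron diffraction at 1.0 wavelength, molecular replacement and partial refinement gave the models; one pose per ligand was chosen for contact analysis.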

[1] = Table A5-1 pharmacophore: distance between elements, S2/S1 region
[2] = Table A5-2 pharmacophore distance, S3/S4 region
[3] = Table A7-1, between pharmacophore elements of the bound compound
[4] = Table A7-2, between pharmacophore elements of the bound compound
[5] = Table A8-6, nearest protein atom in cell to the left

Chain of MASP-2 CCP2-SP (O00187 445-686): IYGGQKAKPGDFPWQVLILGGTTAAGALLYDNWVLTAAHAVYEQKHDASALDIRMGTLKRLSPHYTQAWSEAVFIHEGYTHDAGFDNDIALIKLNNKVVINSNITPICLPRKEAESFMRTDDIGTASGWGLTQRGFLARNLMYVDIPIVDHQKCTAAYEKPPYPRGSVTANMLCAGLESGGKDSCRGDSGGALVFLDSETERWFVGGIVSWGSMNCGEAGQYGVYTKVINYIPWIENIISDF
Chain of MASP-2 CCP2-SP (O00187 364-432 partner): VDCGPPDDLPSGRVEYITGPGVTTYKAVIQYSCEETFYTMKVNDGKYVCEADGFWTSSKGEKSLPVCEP

## Cc1nc(N)ccc1CNC(=O)[C@H](C)NC(=O)[C@H]1C[C@H](Cc2cc(-c3ccccc3)cs2)CN1 [compound 1399, (2R,4R)—N—((S)-1-(((6-Amino-2-methylpyridin-3-yl)methyl)amino)-1-oxopropan-2-yl)-4-((4-phenylthiophen-2-yl)methyl)pyrrolidine-2-carboxamide Dihydrochloride]
Table A1 (H-Bonds), ASP 627 OD2
  H-bond distance to MASP-2 ASP 627 atom OD2: 3.26
Table A1 (H-Bonds)
  H-bond distance to MASP-2 GLY 656 atom N: 3.21
  H-bond distance to MASP-2 GLY 656 atom O: 2.75
  H-bond distance to MASP-2 SER 628 atom O: 3.15
  H-bond distance to MASP-2 SER 654 atom O: 3.04
  H-bond distance to MASP-2 SER 657 atom O: 2.86
Table A2
  van der Waals contact distance, MASP-2 amino acid atom to compound atom: 3.7
Table A2-1
  van der Waals contact distance, MASP-2 HIS 483 atom CD2: 3.72
  van der Waals contact distance, MASP-2 HIS 483 atom NE2: 3.6
Table A2-3
  van der Waals contact distance, MASP-2 PHE 529 atom CD2: 3.85
  van der Waals contact distance, MASP-2 PHE 529 atom CE2: 3.7
Table A2-7: SER 628 (CB, O, OG)
  van der Waals contact distance, MASP-2 amino acid atom to compound atom: 3.61
  van der Waals contact distance, VAL 653 CG1 to compound atom: 3.32
  Ligand-pharmacophore element distance, pharmacophore element C2: 0
  Ligand-pharmacophore element distance, pharmacophore element C3: 0.14
  Ligand-pharmacophore element distance, pharmacophore element C4: 0
  Ligand-pharmacophore element distance, pharmacophore element C5: 0
  Ligand-pharmacophore element distance, pharmacophore element C6: 0
  Ligand-pharmacophore element distance, pharmacophore element C7: 0
  Ligand-pharmacophore element distance, pharmacophore element CA1: 0.59
  Ligand-pharmacophore element distance, pharmacophore element CA2: 0.85
  Ligand-pharmacophore element distance, pharmacophore element CA3: 0
  Ligand-pharmacophore element distance, pharmacophore element CA4: 2.39
  Ligand-pharmacophore element distance, pharmacophore element CA5: 0
  Ligand-pharmacophore element distance, pharmacophore element CA6: 0
Table A2-12
  van der Waals contact distance, TRP 655 CA to compound atom: 3.43
Table A2-13, MASP-2 TRP 655 CZ3
  van der Waals contact distance TRP 655 atom CZ3: 3.42
Table A2 section before Table A2-8
  van der Waals contact distance, MASP-2 amino acid atom to compound atom: 3.81
[1]
  d(C3,CA1): 2.86
  d(CA1,N1)2: 1.38
  d(CA1,O1): 4.40
  d(CA1,O2): 3.92
  d(H4,O1): 4.40
  d(H4,O2): 3.82
  d(O1,O2): 3.33
[2]
  d(N2,CA2): 5.96
  d(O2,H3): 4.09
  d(O2,N2): 2.67
Table A6-1 pharmacophore angle
  a(C3, CA1, O1): 149.86
  a(CA1, O1, O2): 105.80
  a(O1, O2, H4): 132.84
Table A6-1 pharmacophore angle, Methyl-amino-pyridine compounds
  a(N1, CA1, O1) b): 173.87
Table A6-2 pharmacophore angle
  a(O1, O2, H3): 145.77
  a(O1, O2, N2): 143.45
  a(O2, N2, CA2): 157.06
[3]
  Pharmacophore torsion angle a(C3, CA1, O1, H4): 24.20
  Pharmacophore torsion angle a(H4, O1, O2, H3): 50.25
  Pharmacophore torsion angle a(H4, O1, O2, N2): 142.63
  Pharmacophore torsion angle a(N1, CA1, O1, H4): 0.87
  Pharmacophore torsion angle a(O1, H4, O2, CA1): −83.35
[4]
  Pharmacophore torsion angle a(O1, O2, N2, CA2): 126.87
  Pharmacophore torsion angle a(O1, O2, N2, CA4): 113.10

## C[C@H](NC(=O)[C@H](N)CCc1ccccc1)C(=O)NCc1cc(Cl)ccc1O [compound 1031, (R)-2-Amino-N—((S)-1-((5-chloro-2-hydroxybenzyl)amino)-1-oxopropan-2-yl)-4-phenylbutanamide Hydrochloride]
Table A1 (H-Bonds), ARG 630 NH1
  H-bond distance to MASP-2 ARG 630 atom NH1 (second bond): 2.83
Table A1 (H-Bonds)
  H-bond distance to MASP-2 GLY 656 atom O: 2.67
Table A2-1
  van der Waals contact distance, MASP-2 HIS 483 atom CD2: 3.57
  van der Waals contact distance, MASP-2 HIS 483 atom CE1: 3.62
  van der Waals contact distance, MASP-2 HIS 483 atom NE2: 3.17
Table A2-3
  van der Waals contact distance, MASP-2 PHE 529 atom CE2: 3.75
Table A2-4
  van der Waals contact distance, MASP-2 TYR 607 atom CD1: 3.85
Table A2-9 second part, ARG 630, AA atoms N, NE, NH1, Hydrochloride
  van der Waals contact distance, MASP-2 amino acid atom to compound atom: 3.34
  van der Waals contact distance, VAL 653 CG1 to compound atom: 3.58
Hydrochloride
  van der Waals contact distance, SER 654 C to compound atom: 3.56
Table A2-12, Hydrochloride
  van der Waals contact distance, TRP 655 C to compound atom: 3.26
  van der Waals contact distance, TRP 655 CA to compound atom: 3.64
Table A2-13
  van der Waals contact distance GLY 656 atom C: 3.61
  van der Waals contact distance TRP 655 atom CE3: 3.49
  van der Waals contact distance TRP 655 atom N: 3.28

## CNC(=O)c1ccc2c(=O)n(Cc3ccccc3)c(=O)n(CC(=O)NCc3ccc(C(=N)N)cc3)c2c1 [compound 2018, 3-Benzyl-1-(2-((4-carbamimidoylbenzyl)amino)-2-oxoethyl)-N-methyl-2,4-dioxo-1,2,3,4-tetrahydroquinazoline-7-carboxamide]
Table A1 (H-Bonds), GLN 665 OE1
  H-bond distance to MASP-2 GLN 665 atom OE1: 2.56
Table A1 (H-Bonds)
  H-bond distance to MASP-2 GLY 656 atom N: 3.26
  H-bond distance to MASP-2 SER 628 atom O: 3.01
  H-bond distance to MASP-2 SER 654 atom O: 2.94
  H-bond distance to MASP-2 SER 657 atom O: 2.84
Table A1 (H-Bonds), SER 633 OG
  H-bond distance to MASP-2 SER 633 atom OG: 3.08
Table A2-1
  van der Waals contact distance, MASP-2 HIS 483 atom CD2: 3.7
  van der Waals contact distance, MASP-2 HIS 483 atom NE2: 3.87
Table A2-3
  van der Waals contact distance, MASP-2 PHE 529 atom CE2: 3.68
Table A2-7 continued: CYS 629 (CA)
  van der Waals contact distance, MASP-2 amino acid atom to compound atom: 3.87
  van der Waals contact distance, SER 654 C to compound atom: 3.79
  Ligand-pharmacophore element distance, pharmacophore element C2: 0
  Ligand-pharmacophore element distance, pharmacophore element C3: 9.61
  Ligand-pharmacophore element distance, pharmacophore element C4: 0
  Ligand-pharmacophore element distance, pharmacophore element C5: 0
  Ligand-pharmacophore element distance, pharmacophore element C6: 0
  Ligand-pharmacophore element distance, pharmacophore element C7: 0
  Ligand-pharmacophore element distance, pharmacophore element CA1: 0.54
  Ligand-pharmacophore element distance, pharmacophore element CA2: 0
  Ligand-pharmacophore element distance, pharmacophore element CA3: 0
  Ligand-pharmacophore element distance, pharmacophore element CA4: 0
  Ligand-pharmacophore element distance, pharmacophore element CA5: 1.25
  Ligand-pharmacophore element distance, pharmacophore element CA6: 1.35
Table A2-13
  van der Waals contact distance GLY 656 atom C: 3.64
  van der Waals contact distance TRP 655 atom CE3: 3.76
  van der Waals contact distance TRP 655 atom N: 3.89
Table A2-14, MASP-2 GLY 656 O
  van der Waals contact distance GLY 656 atom O: 3.3
Table A2-14, MASP-2 SER 657 C, columns c12-c13 (inferred)
  van der Waals contact distance SER 657 atom C: 3.7
[1]
  d(CA1,N1): 3.56
  d(CA1,O1): 7.59
  d(CA1,O2): 6.76
  d(CA6,O1): 2.73
  d(CA6,O2): 2.50
  d(H4,O1): 3.89
  d(H4,O2): 5.39
  d(O1,O2): 4.92
[2]
  d(O2,H3): 9.00
Table A6-1 pharmacophore angle
  a(CA1, O1, O2): 100.76
  a(O1, CA6, O2): 159.18
  a(O1, O2, H4): 118.45
Table A6-1 pharmacophore angle, all compounds with protonatable center N1 except Methyl-amino-pyridine
  A(N1, CA1, O1) a): 169.37
Table A6-2 pharmacophore angle
  a(O1, O2, H3): 154.86
[3]
  Pharmacophore torsion angle a(CA6, O1, H4, O2): −9.94
  Pharmacophore torsion angle a(H4, O1, O2, H3): 30.27
  Pharmacophore torsion angle a(N1, CA1, O2, H4): −154.72
  Pharmacophore torsion angle a(O1, H4, O2, CA1): −146.71
Table A8-6, 6th residue column, nearest protein atom in cell to the left
  Pharmacophore protein distance to MET_658 (first MET_658 column): 1.58
Table A8-6, 9th residue column, nearest protein atom in cell to the left
  Pharmacophore protein distance to MET_658 (second MET_658 column): 2.86
[5]
  Pharmacophore protein distance to GLY_528: 3.65
  Pharmacophore protein distance to PHE_529: 2.90
  Pharmacophore protein distance to PRO_608: 3.74
  Pharmacophore protein distance to SER_611: 2.86
Table A8-6, pharmacophore elements C6, CA3, O3, H1, nearest protein atom in cell to the left
  Pharmacophore protein distance to TRP_655: 3.77
